Experimental data reported in patent US6162925A, “Antibiotic for methicillin resistant bacteria” (Research Corporation Tech., Inc., priority 1999, dated 2000).
In brackets after ≈: the same amount, converted by molar mass. Where two headings read alike, the source gives them in different places.

Assays:
[1] = tested on: Escherichia coli ATCC 25922; test: MIC, broth microdilution (NCCLS), E. coli ATCC 25922; type: cell-based; conditions: read-out: Minimal Inhibitory Concentration (MIC)
Method: (§1) Test compounds were assayed against Staphylococcus aureus FDA 209P by the 10 fold agar disc diffusion assay on BHI-plates at pH=7 and pH=9 in accordance with the procedure from the National Committee for Clinical Laboratory Standards 1989. Susceptibility testing. A panel of 16 bacteria was used to evaluate the antimicrobial activity of the compounds (Table 2). The MIC of each antimicrobial agent was determined using a microdilution method according to NCCLS standards^1. Serial twofold dilutions of antibiotics were prepared in Mueller-Hinton broth (Difco Laboratories, Detroit, Mich.). Bacteria were grown to early log phase at 35° C. (1 hours) in Mueller-Hinton broth and cultures were diluted to achieve a final inoculum of 5×10^5 CFU per ml. Microtiter plates were incubated at 35° C. for 20 h and then were read using a Thermomax microplate reader (Molecular Devices, Sunnyvale, Calif.) and a microtiter plate reading mirror. The MIC was defined as the lowest concentration of antibiotic which inhibited the development of visible growth at the end of the incubation period. The standard reference strains were Staphyloccocus aureus ATCC […], Enterococcus faecalis ATCC 29212, E. faecium ATCC 35667, Escherichia coli ATCC 25922, and Pseudomonas aeruginosa ATCC 27853. Imipenem and vancomycin were used as antibiotic controls and values for reference strains were in accordance with the NCCLS.

[2] = tested on: Enterococcus faecium ATCC 35667; test: MIC, broth microdilution (NCCLS), E. faecium ATCC 35667; type: cell-based; conditions: read-out: Minimal Inhibitory Concentration (MIC)
Method: as §1
(§2) Enterococcus ATCC Reference strain

[3] = tested on: Staphylococcus aureus sa ATCC 13709; test: MIC, broth microdilution (NCCLS), S. aureus sa ATCC 13709; type: cell-based; conditions: read-out: Minimal Inhibitory Concentration (MIC)
Method: as §1

[4] = tested on: Staphylococcus aureus sa201; test: MIC, broth microdilution (NCCLS), S. aureus sa201; type: cell-based; conditions: read-out: Minimal Inhibitory Concentration (MIC)
Method: as §1
Staphylococcus Clinical isolate,
aureus sa201 Spain resistant, β-

[5] = tested on: Staphylococcus aureus ATCC 29213; test: MIC, broth microdilution (NCCLS), S. aureus ATCC 29213; type: cell-based; conditions: read-out: Minimal Inhibitory Concentration (MIC)
Method: as §1
Staphylococcus ATCC Reference strain

[6] = tested on: Staphylococcus aureus ATCC 33593; test: MIC, broth microdilution (NCCLS), S. aureus ATCC 33593; type: cell-based; conditions: read-out: Minimal Inhibitory Concentration (MIC)
Method: as §1
Staphylococcus ATCC Methicillin
aureus ATCC 33593 resistant, β-

[7] = tested on: Enterococcus faecium BM4147; test: MIC, broth microdilution (NCCLS), E. faecium BM4147; type: cell-based; conditions: read-out: Minimal Inhibitory Concentration (MIC)
Method: as §1
(§3) Enterococcus Vancomycin
faecium BM4147 resistant, vanA

[8] = tested on: Staphylococcus aureus COL; test: MIC, broth microdilution (NCCLS), S. aureus COL; type: cell-based; conditions: 20 h, read-out: Minimal Inhibitory Concentration (MIC)
Method: as §1
(§4) Staphylococcus Methicillin
aureus COL resistant, β-

[9] = tested on: Enterococcus faecalis V583; test: MIC, broth microdilution (NCCLS), E. faecalis V583; type: cell-based; conditions: read-out: Minimal Inhibitory Concentration (MIC)
Method: as §1, §3
faecalis V583 resistant, vanB

[10] = tested on: Staphylococcus aureus PC1; test: MIC, broth microdilution (NCCLS), S. aureus PC1; type: cell-based; conditions: read-out: Minimal Inhibitory Concentration (MIC)
Method: as §1
Staphylococcus Type A βlactamase
aureus PC1 hyperproducer

[11] = tested on: Enterococcus faecalis ATCC 29212; test: MIC, broth microdilution (NCCLS), E. faecalis ATCC 29212; type: cell-based; conditions: read-out: Minimal Inhibitory Concentration (MIC)
Method: as §1, §2

[12] = tested on: Staphylococcus haemolyticus UA281; test: MIC, broth microdilution (NCCLS), S. haemolyticus UA281; type: cell-based; conditions: read-out: Minimal Inhibitory Concentration (MIC)
Method: as §1, §4
haemolyticus UA281 resistant

Staphylococcus aureus 76 = test: MIC, broth microdilution (NCCLS), S. aureus 76; type: cell-based; conditions: read-out: Minimal Inhibitory Concentration (MIC)
Method: as §1, §4

[13] = tested on: Enterococcus faecium efm040; test: MIC, broth microdilution (NCCLS), E. faecium efm040; type: cell-based; conditions: read-out: Minimal Inhibitory Concentration (MIC)
Method: as §1
Enterococcus Clinical isolate,
faecium efm040 U.S.A. resistant

[14] = tested on: Staphylococcus aureus COL8A; test: MIC, broth microdilution (NCCLS), S. aureus COL8A; type: cell-based; conditions: 20 h, read-out: Minimal Inhibitory Concentration (MIC)
Method: as §1, §4
aureus COL8A susceptible, […]

[15] = tested on: Pseudomonas Aeruginosa ATCC 27853; test: MIC, broth microdilution (NCCLS), P. aeruginosa ATCC 27853; type: cell-based; conditions: read-out: Minimal Inhibitory Concentration (MIC)
Method: as §1

[16] = basic aqueous solutions; hydrolytic opening of six-membered ring; cited from earlier work
[17] = ATCC25922, E. coli ATCC 25922, reference strain, 35° C., 20 h
[18] = ATCC35667, E. faecium ATCC 35667, reference strain, 35° C., 20 h
[19] = ATCC13709, S. aureus sa ATCC 13709, Smith strain, 35° C., 20 h
[20] = S. aureus sa201, clinical isolate Spain, methicillin resistant, β-lactamase positive, 35° C., 20 h
[21] = ATCC29213, S. aureus ATCC 29213, reference strain, 35° C., 20 h
[22] = ATCC33593, S. aureus ATCC 33593, methicillin resistant, β-lactamase positive, 35° C., 20 h
[23] = E. faecium BM4147, vancomycin resistant, vanA, 35° C., 20 h
[24] = S. aureus COL, methicillin resistant, β-lactamase negative, 35° C.
[25] = E. faecalis V583, vancomycin resistant, vanB, 35° C., 20 h
[26] = S. aureus PC1, Type A βlactamase hyperproducer, 35° C., 20 h
[27] = ATCC29212, E. faecalis ATCC 29212, reference strain, 35° C., 20 h
[28] = S. haemolyticus UA281, methicillin resistant, 35° C., 20 h
[29] = Staphylococcus aureus, S. aureus 76, methicillin resistant, β-lactamase positive, 35° C., 20 h
[30] = E. faecium efm040, clinical isolate U.S.A., ampicillin resistant, 35° C., 20 h
[31] = ATCC27853, P. aeruginosa ATCC 27853, reference strain, 35° C., 20 h

| SMILES | MIC [14] [µg/mL] | MIC [1, 17] [µg/mL] | MIC [2, 18] [µg/mL] | MIC [3, 19] [µg/mL] | MIC [4, 20] [µg/mL] | MIC [5, 21] [µg/mL] | MIC [6, 22] [µg/mL] | MIC [7, 23] [µg/mL] | MIC [8, 24] [µg/mL] | MIC [9, 25] [µg/mL] | MIC [10, 26] [µg/mL] | MIC [11, 27] [µg/mL] | MIC [12, 28] [µg/mL] | MIC (Staphylococcus aureus 76; [29]) [µg/mL] | MIC [13, 30] [µg/mL] | MIC [15, 31] [µg/mL] | also measured |
| --- | --- | --- | --- | --- | --- | --- | --- | --- | --- | --- | --- | --- | --- | --- | --- | --- | --- |
| CN[C@H](CC(C)C)C(=O)N[C@H]1C(=O)N[C@@H](CC(N)=O)C(=O)N[C@H]2C(=O)N[C@H]3C(=O)N[C@H](C(=O)N[C@H](C(=O)O)c4cc(O)cc(O)c4-c4cc3ccc4O)[C@H](O)c3ccc(c(Cl)c3)Oc3cc2cc(c3O[C@@H]2O[C@H](CO)[C@@H](O)[C@H](O)[C@H]2O[C@H]2C[C@](C)(N)[C@H](O)[C@H](C)O2)Oc2ccc(cc2Cl)[C@H]1O [Vancomycin, vancomycin] | ≤ 0.25 |  |  |  |  |  |  |  |  |  |  |  |  |  |  |  | MIC ([1]; ATCC25922, 20 h): > 128 µg/mL; MIC ([2]; ATCC35667, 20 h): ≤ 0.25 µg/mL; MIC ([3]; ATCC13709, 20 h): ≤ 0.25 µg/mL; MIC ([4]; SA201, 20 h): 0.5 µg/mL (≈ 0.345 µM); MIC ([5]; ATCC29213, 20 h): ≤ 0.25 µg/mL; MIC ([6]; ATCC33593, 20 h): 0.5 µg/mL (≈ 0.345 µM); MIC ([7]; BM4147, 20 h): > 128 µg/mL; MIC [8]: 1 µg/mL (≈ 0.69 µM); MIC ([9]; V583, 20 h): 16 µg/mL (≈ 11 µM); MIC ([10]; PC1, 20 h): ≤ 0.25 µg/mL; MIC ([11]; ATCC29212, 20 h): 1 µg/mL (≈ 0.69 µM); MIC ([12]; UA281, 20 h): 1 µg/mL (≈ 0.69 µM); MIC (Staphylococcus aureus 76; Staphylococcus aureus, 76, 20 h): ≤ 0.25 µg/mL; MIC ([13]; EFM040, 20 h): ≤ 0.25 µg/mL; MIC ([15]; ATCC27853, 20 h): > 128 µg/mL |
| COC(=O)NC1=NC(=O)C(N(C)C(=O)C[C@@H](N)CCCNC(=N)N)CN1 (stereo partly shown) [Compound 73c, 3S,5'S/R-3-amino-6-[(aminoiminomethyl)amino]-N-(2-methoxycarbonylamino-1,4,5,6-tetrahydro-4-oxo-5-pyrimidinyl)-N-methyl-hexanamide] | 64 (≈ 173 µM) | > 256 | 128 (≈ 346 µM) | 32 (≈ 86.4 µM) | 64 (≈ 173 µM) | 64 (≈ 173 µM) | 64 (≈ 173 µM) | 64 (≈ 173 µM) | 64 (≈ 173 µM) | 64 (≈ 173 µM) | 32 (≈ 86.4 µM) | 64 (≈ 173 µM) | 256 (≈ 691 µM) | 64 (≈ 173 µM) | > 256 | > 256 |  |
| C[C@@H](O)[C@H]1C(=O)N2C(C(=O)O)=C(SCCN=CN)C[C@H]12 [Imipenem] | ≤ 0.25 | ≤ 0.25 | 4 (≈ 13.4 µM) | ≤ 0.25 | 64 (≈ 214 µM) | ≤ 0.25 | 8 (≈ 26.7 µM) | 8 (≈ 26.7 µM) | 32 (≈ 107 µM) | 0.5 (≈ 1.67 µM) | ≤ 0.25 | 0.5 (≈ 1.67 µM) | 64 (≈ 214 µM) | 8 (≈ 26.7 µM) | > 128 | 1 (≈ 3.34 µM) |  |
| CN(C(=O)C[C@@H](N)CCCNC(=N)N)[C@@H]1CNC(NC(N)=O)=NC1=O [TAN-1057B] |  |  |  |  |  |  |  |  |  |  |  |  |  |  |  |  | loss of antibacterial activity in basic aqueous solutions [16]: gradually lost their antibacterial activities in basic aqueous solutions |
